According to patent publication US7238701B2, “Substituted tetrahydrobenzothienopyrimidinamine compounds useful for treating hyper-proliferative disorders” (Bayer Pharmaceuticals Corporation, priority 2003, dated 2007):

Tests used:
[1] = tested on: A431cells (human epidermoid carcinoma); experiment: In vitro tumor cell proliferation assay (Cell Titer-Glo luminescent cell viability), A431 cells; type: cell-based; conditions: A-431, 72 h, 72 hours drug exposure, 10% Fetal Bovine Serum, ATP luminescence readout, read-out: IC50 (50% inhibition of cell proliferation)
Outline: (§1)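 ATP luminescence (CellTiter-Glo) measured proliferation after 72 h compound exposure at 37 °C, giving IC50 values. Serial dilutions spanning 64 pM–100 μM in 0.1% DMSO were applied one day after plating 2.5×10^3 cells/well in RPMI plus 10% fetal bovine serum.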

[2] = tested on: BT474 (human breast carcinoma); experiment: In vitro tumor cell proliferation assay (Cell Titer-Glo luminescent cell viability), BT474 cells; type: cell-based; conditions: BT-474, 72 hours drug exposure, 10% Fetal Bovine Serum, ATP luminescence readout, read-out: IC50 (50% inhibition of cell proliferation)
Outline: as §1

IC50 [1] [µM]	IC50 [2] [µM]	Compound
< 50	< 5	CC1CCCN1CCC1CCc2c(sc3ncnc(Nc4ccc5c(cnn5Cc5ccccc5)c4)c23)C1 (centres unmarked) [Example 238, N-(1-benzyl-1H-indazol-5-yl)-7-[2-(2-methylpyrrolidin-1-yl)ethyl]-5,6,7,8-tetrahydro[1]benzothieno[2,3-d]pyrimidin-4-amine]
< 5	< 5	Clc1cc(Nc2ncnc3sc4c(c23)CCC(CCN2CCCCC2)C4)ccc1OCc1ccccn1 (centres unmarked) [Example 191, N-[3-chloro-4-(pyridin-2-ylmethoxy)phenyl]-7-(2-piperidin-1-ylethyl)-5,6,7,8-tetrahydro[1]benzothieno[2,3-d]pyrimidin-4-amine]
< 50	< 50	COCCN1CCN(C(=O)CC2CCc3c(sc4ncnc(Nc5cccc(Br)c5)c34)C2)CC1 (centres unmarked) [Example 91, N-(3-bromophenyl)-7-{2-[4-(2-methoxyethyl)-1-piperazinyl]-2-oxoethyl}-5,6,7,8-tetrahydro[1]benzothieno[2,3-d]pyrimidin-4-amine]
< 5	< 5	COCCNCCC1CCc2c(sc3ncnc(Nc4ccc(OCc5ccccn5)c(Cl)c4)c23)C1 (centres unmarked) [Example 176, N-[3-chloro-4-(pyridin-2-ylmethoxy)phenyl]-7-{2-[(2-methoxyethyl)amino]ethyl}-5,6,7,8-tetrahydro[1]benzothieno[2,3-d]pyrimidin-4-amine]
< 5	< 5	COCCN(C)CCC1CCc2c(sc3ncnc(Nc4ccc(OCc5ccccn5)c(Cl)c4)c23)C1 (centres unmarked) [Example 189, N-[3-chloro-4-(pyridin-2-ylmethoxy)phenyl]-7-{2-[(2-methoxyethyl)(methyl)amino]ethyl}-5,6,7,8-tetrahydro[1]benzothieno[2,3-d]pyrimidin-4-amine]
< 50	< 50	CCOC(=O)C1CCc2c(sc3ncnc(Nc4ccc(F)c(Cl)c4)c23)C1 (centres unmarked) [Example 24, ethyl 4-[(3-chloro-4-fluorophenyl)amino]-5,6,7,8-tetrahydro[1]benzothieno[2,3-d]pyrimidine-7-carboxylate]
< 5	< 5	Fc1cccc(COc2ccc(Nc3ncnc4sc5c(c34)CCC(CCN3CCCC3)C5)cc2Cl)c1 (centres unmarked) [Example 161, N-{3-chloro-4-[(3-fluorobenzyl)oxy]phenyl}-7-(2-pyrrolidin-1-ylethyl)-5,6,7,8-tetrahydro[1]benzothieno[2,3-d]pyrimidin-4-amine]
< 5	< 5	CN(C)CCNCCC1CCc2c(sc3ncnc(Nc4ccc(OCc5ccccn5)c(Cl)c4)c23)C1 (centres unmarked) [Example 184, N′-[2-(4-{[3-chloro-4-(pyridin-2-ylmethoxy)phenyl]amino}-5,6,7,8-tetrahydro[1]benzothieno[2,3-d]pyrimidin-7-yl)ethyl]-N,N-dimethylethane-1,2-diamine]
< 50	< 50	CCOC(=O)CC1CCc2c(sc3ncnc(Nc4ccc(F)c(Cl)c4)c23)C1 (centres unmarked) [Example 57, ethyl {4-[(3-chloro-4-fluorophenyl)amino]-5,6,7,8-tetrahydro[1]benzothieno[2,3-d]pyrimidin-7-yl}acetate]
< 50	< 50	Fc1ccc(Nc2ncnc3sc4c(c23)CCC(CN2CCOCC2)C4)cc1Cl (centres unmarked) [Example 12, N-(3-chloro-4-fluorophenyl)-7-(4-morpholinylmethyl)-5,6,7,8-tetrahydro[1]benzothieno[2,3-d]pyrimidin-4-amine]
< 5	< 5	COC[C@H]1CCCN1CCC1CCc2c(sc3ncnc(Nc4ccc(OCc5cccc(F)c5)c(Cl)c4)c23)C1 (stereo partly drawn) [Example 198, N-{3-chloro-4-[(3-fluorobenzyl)oxy]phenyl}-7-{2-[(2R)-2-(methoxymethyl)pyrrolidin-1-yl]ethyl}-5,6,7,8-tetrahydro[1]benzothieno[2,3-d]pyrimidin-4-amine]
< 5	< 5	CN(C)CCC1CCc2c(sc3ncnc(Nc4ccc(OCc5cccc(F)c5)c(Cl)c4)c23)C1 (centres unmarked) [Example 164, N-{3-chloro-4-[(3-fluorobenzyl)oxy]phenyl}-7-[2-(dimethylamino)ethyl]-5,6,7,8-tetrahydro[1]benzothieno[2,3-d]pyrimidin-4-amine]
< 50	< 5	Cc1ccc(Oc2ccc(Nc3ncnc4sc5c(c34)CCC(CCN3CCCC3C)C5)cc2C)cn1 (centres unmarked) [Example 234, N-{3-methyl-4-[(6-methylpyridin-3-yl)oxy]phenyl}-7-[2-(2-methylpyrrolidin-1-yl)ethyl]-5,6,7,8-tetrahydro[1]benzothieno[2,3-d]pyrimidin-4-amine]
< 50	< 50	O=C(CC1CCc2c(sc3ncnc(Nc4ccc(OCc5ccc(F)cc5)c(Cl)c4)c23)C1)N1CCCC1 (centres unmarked) [Example 149, N-{3-chloro-4-[(4-fluorobenzyl)oxy]phenyl}-7-(2-oxo-2-pyrrolidin-1-ylethyl)-5,6,7,8-tetrahydro[1]benzothieno[2,3-d]pyrimidin-4-amine]
< 5	< 5	Clc1cc(Nc2ncnc3sc4c(c23)CCC(CCN2CCN(Cc3ccncc3)CC2)C4)ccc1OCc1ccccn1 (centres unmarked) [Example 196, N-[3-chloro-4-(pyridin-2-ylmethoxy)phenyl]-7-{2-[4-(pyridin-4-ylmethyl)piperazin-1-yl]ethyl}-5,6,7,8-tetrahydro[1]benzothieno[2,3-d]pyrimidin-4-amine]
< 5	< 5	COCCN(C)CCC1CCc2c(sc3ncnc(Nc4ccc(OCc5cccc(F)c5)c(Cl)c4)c23)C1 (centres unmarked) [Example 159, N-{3-chloro-4-[(3-fluorobenzyl)oxy]phenyl}-7-{2-[(2-methoxyethyl)(methyl)amino]ethyl}-5,6,7,8-tetrahydro[1]benzothieno[2,3-d]pyrimidin-4-amine]
< 50	< 50	COCCC1CCc2c(sc3ncnc(Nc4cccc(Br)c4)c23)C1 (centres unmarked) [Example 90, N-(3-bromophenyl)-7-(2-methoxyethyl)-5,6,7,8-tetrahydro[1]benzothieno[2,3-d]pyrimidin-4-amine]
< 50	< 5	Cc1ccc(Oc2ccc(Nc3ncnc4sc5c(c34)CCC(CCOS(C)(=O)=O)C5)cc2C)cn1 (centres unmarked) [Example 215, 2-[4-({3-methyl-4-[(6-methylpyridin-3-yl)oxy]phenyl}amino)-5,6,7,8-tetrahydro[1]benzothieno[2,3-d]pyrimidin-7-yl]ethyl methanesulfonate]
< 5	< 5	c1ccc(Cn2ncc3cc(Nc4ncnc5sc6c(c45)CCC(CCNCCN4CCOCC4)C6)ccc32)cc1 (centres unmarked) [Example 209, N-(1-benzyl-1H-indazol-5-yl)-7-{2-[(2-morpholin-4-ylethyl)amino]ethyl}-5,6,7,8-tetrahydro[1]benzothieno[2,3-d]pyrimidin-4-amine]
< 50	< 5	Cc1ccc(Oc2ccc(Nc3ncnc4sc5c(c34)CCC(CCO)C5)cc2C)cn1 (centres unmarked) [Example 214, 2-{4-[3-Methyl-4-(6-methyl-pyridin-3-yloxy)-phenylamino]-5,6,7,8-tetrahydro-benzo[4,5]thieno[2,3-d]pyrimidin-7-yl}-ethanol]
< 50	< 50	O=C(O)C1CCc2c(sc3ncnc(Nc4ccc(F)c(Cl)c4)c23)C1 (centres unmarked) [Example 20, 4-[(3-chloro-4-fluorophenyl)amino]-5,6,7,8-tetrahydro[1]benzothieno[2,3-d]pyrimidine-7-carboxylic acid]
< 5	< 5	Brc1cccc(Nc2ncnc3sc4c(c23)CCC(CCN2CCOCC2)C4)c1 (centres unmarked) [Example 45, N-(3-bromophenyl)-7-[2-(4-morpholinyl)ethyl]-5,6,7,8-tetrahydro[1]benzothieno[2,3-d]pyrimidin-4-amine]
< 50	< 5	O=C(CC1CCc2c(sc3ncnc(Nc4cccc(Br)c4)c23)C1)N1CCN(Cc2ccncc2)CC1 (centres unmarked) [Example 103, N-(3-bromophenyl)-7-{2-oxo-2-[4-(4-pyridinylmethyl)-1-piperazinyl]ethyl}-5,6,7,8-tetrahydro[1]benzothieno[2,3-d]pyrimidin-4-amine]
< 50	< 50	OCCC1CCc2c(sc3ncnc(Nc4ccc(F)c(Cl)c4)c23)C1 (centres unmarked) [Example 64, 2-{4-[(3-chloro-4-fluorophenyl)amino]-5,6,7,8-tetrahydro[1]benzothieno[2,3-d]pyrimidin-7-yl}ethanol]
< 5	< 5	CN(C)[C@H]1CCN(CCC2CCc3c(sc4ncnc(Nc5ccc(OCc6ccccn6)c(Cl)c5)c34)C2)C1 (stereo partly drawn) [Example 141, N-[3-chloro-4-(pyridin-2-ylmethoxy)phenyl]-7-{2-[(3S)-3-(dimethylamino)pyrrolidin-1-yl]ethyl}-5,6,7,8-tetrahydro[1]benzothieno[2,3-d]pyrimidin-4-amine]
< 5	< 5	Cc1ccc(Oc2ccc(Nc3ncnc4sc5c(c34)CCC(CCN3CCC(N(C)C)C3)C5)cc2C)cn1 (centres unmarked) [Example 223, 7-{2-[3-(dimethylamino)pyrrolidin-1-yl]ethyl}-N-{3-methyl-4-[(6-methylpyridin-3-yl)oxy]phenyl}-5,6,7,8-tetrahydro[1]benzothieno[2,3-d]pyrimidin-4-amine]
< 5	< 5	CN1CCN(CCC2CCc3c(sc4ncnc(Nc5ccc(F)c(Cl)c5)c34)C2)CC1 (centres unmarked) [Example 59, N-(3-chloro-4-fluorophenyl)-7-[2-(4-methyl-1-piperazinyl)ethyl]-5,6,7,8-tetrahydro[1]benzothieno[2,3-d]pyrimidin-4-amine]
< 50	< 5	Fc1cccc(COc2ccc(Nc3ncnc4sc5c(c34)CCC(CCBr)C5)cc2Cl)c1 (centres unmarked) [Example 138, [7-(2-Bromo-ethyl)-5,6,7,8-tetrahydro-benzo[4,5]thieno[2,3-d]pyrimidin-4-yl]-[3-chloro-4-(3-fluoro-benzyloxy)-phenyl]-amine]
